# Test results as given in patent US9593153B2, “Modified apelin polypeptides” (INSERM (INSTITUT NATIONAL DE LA SANTE ET DE LA RECHERCHE …, priority 2012, dated 2017).
# “Also recorded” adds a separate entry of the source.
# Experiments:
# proApelin processing = proApelin processing in transfected cells with PC inhibitors (immunoblot); type: cell-based, human; conditions: cell transfection experiments, coexpression with apelin
# Text: FIG. 2: Human apelin cDNA encodes a protein of 77 amino acid residues. Newly synthesized apelin is a preproprotein that is proteolytically processed in order to generate mature 36, 17 and 13 amino acid forms. We cloned human apelin into pIRES2-eGFP vector adding a V5 tag in C-terminus of the apelin sequence. […] To identify the PCs involved in apelin processing, apelin and each of the PCs were transiently co-expressed in LoVo cells, a furin-deficient cell line. Supernatants were collected 24 hours after transfection and analyzed for proapelin processing by immunoblotting using a V5 antibody. As illustrated in (a), analyses of media derived from LoVo cells cotransfected with vector encoding proapelin and control vector show a band with an apparent molecular mass of 8-9 kDa, corresponding to the intact apelin precursor. […] FIG. 3: […]
# human platelets [1] = assay: Thrombin-induced aggregation of washed human platelets; type: cell-based; conditions: for thrombin-induced platelet aggregation: human platelets preincubated with peptide alone; for effect on the apelin inhibitory effect on thrombin-induced aggregation: human platelets, peptide together with apelin
# Procedure: FIG. 5: APJ antagonist […]) and unprocessed double mutant apelin-36 (apelin-DM) confirm the role of APJ in the inhibition of platelet function by apelin. Thrombin-induced aggregation of human platelets preincubated with PBS, as control (black bar); […] (100 nM; white bar); apelin (10 nM; grey bar) or […] (100 nM) plus apelin (10 nM) (dashed bar). Venous blood was collected from healthy donors on 10% (v/v) trisodium citrate (3.8%). Written informed consent was obtained from all the donors. Platelet-rich plasma (PRP) was obtained by centrifugation (120 g; 15 minutes; 20° C.) and platelets were isolated by differential centrifugation as previously described^15. The platelet pellet was resuspended in modified Tyrode-HEPES buffer without CaCl2 (137 mM NaCl, 2 mM KCl, 0.3 mM NaH2PO4, 5.5 mM glucose, 5 mM Hepes, 12 mM NaHCO3, pH 7.3). Platelet aggregation was monitored by measuring light transmission through the stirred suspension of washed platelets (3×10^8/mL) at 37° C. in presence of 1 mM CaCl2 using a Chronolog aggregometer (Chrono-log Corporation, USA). When mentioned, platelets were first incubated with apelin-13, apelin-36, apelin-DM or […] for 3 minutes at 37° C. Platelet aggregation was triggered by adding collagen, thrombin, or ADP. Representative traces for aggregation were obtained from at least three independent experiments. Results are expressed as the percent change in light transmission with respect to the blank (buffer without platelets), set at 100%.
# mouse aortic ring = assay: Mouse aortic ring assay
# human platelets [2] = assay: Intracellular Ca2+ mobilization in thrombin-stimulated human platelets (Fura-2); type: cell-based; conditions: for thrombin-induced Ca2+ mobilisation: human platelets preincubated with peptide alone; for effect on the apelin inhibitory effect on thrombin-induced Ca2+ mobilisation: human platelets, peptide together with apelin
# Procedure: FIG. 6: APJ antagonist […]) and unprocessed double mutant apelin-36 (apelin-DM) confirm the role of APJ in the inhibition of platelet function by apelin. Intracellular Ca^2+ mobilization ([Ca^2+]i) in human platelets was monitored in real-time using a fluorescence spectrophotometer. Human platelets, loaded with Fura-2-AM were preincubated 3 minutes with PBS, as control (black bar); […] (100 nM; white bar); apelin (10 nM; grey bar) or […] (100 nM) plus apelin (10 nM) (dashed bar) before stimulation by thrombin (100 mU/mL). […] Human platelets were loaded with Fura-2 by incubation with 2 μM Fura-2-AM for 45 minutes at 37° C. Cells were then collected by centrifugation at 350 g for 15 min and resuspended in HEPES-buffered saline (145 mM NaCl, 10 mM HEPES, 10 mM D-glucose, 5 mM KCl, 1 mM MgSO4, pH 7.4), and supplemented with 0.1% (w/v) BSA. Fluorescence was recorded from 2 mL aliquots of magnetically stirred cell suspensions at 37° C. using a fluorescence spectrophotometer (Varian Ltd., Madrid, Spain) with excitation wavelengths of 340 and 380 nm and emission at 505 nm. Changes in [Ca^2+]i were monitored using the Fura-2 340/380 fluorescence ratio and calibrated according to the method of Grynkiewicz et al.^19. Ca^2+ release by thrombin was estimated using the integral of the rise in [Ca^2+]i for 2.5 minutes after its addition, taking a sample every second, and was expressed in nM as previously described^20.
# wild-type mice = assay: Tail bleeding time after intravenous injection; type: in vivo, mouse; conditions: for tail bleeding time: peptide alone; for effect on the apelin-induced increase in bleeding time: peptide together with apelin
# Text: FIG. 7: APJ antagonist […]) and unprocessed double mutant apelin-36 (apelin-DM) confirm the role of APJ in the inhibition of platelet function by apelin. Tail bleeding time in wild-type mice receiving an intravenous injection of PBS, as control (●); […] (500 nmol/kg; ▪); apelin (50 nmol/kg; ◯) or […] (500 nmol/kg) plus apelin (50 nmol/kg) (□). FIG. 8: APJ antagonist […]) and unprocessed double mutant apelin-36 (apelin-DM) confirm the role of APJ in the inhibition of platelet function by apelin. Tail bleeding time in wild-type mice receiving an intravenous injection of PBS, as control (●); apelin (50 nmol/kg; ◯); apelin-36 (500 nmol/kg; Δ); apelin-DM (500 nmol/kg; ▪), apelin-36 plus apelin (▾) or apelin-DM plus apelin (□). Complete blood counts and haematocrit were determined with an automatic cell counter, using the standard parameters for mice. Bleeding time assays were performed on overnight fasted animals, after injection of PBS, apelin-13, apelin-36, apelin-DM or […] into the retro-orbital plexus, by cutting off the tip of the tail (3 mm from the tip) and immediately immersing it in saline at 37° C. We then recorded the time taken for the bleeding to stop.
# [3] = system: chick chorioallantoic membrane; assay: Chick chorioallantoic membrane (CAM) assay; type: in vivo
# HUVEC [4] = assay: HUVEC proliferation induced by VEGF (Cell Titer96 assay); type: cell-based, human
# Procedure: FIG. 9: HUVEC proliferation and motility. HUVEC were serum deprived overnight and then treated for 24 h with or without VEGF in the presence of apelin wild-type (10 ng/ml) and/or apelin mut-36 (10 ng/ml). Cell proliferation was assessed using Cell Titer96 non-radioactive cell proliferation assay.
# [5] = Cutaneous reverse passive Arthus reactions assay; type: in vivo
# HUVEC [6] = assay: Endothelial cell migration (motility) induced by VEGF; type: cell-based, human
substance,measurement,setting,value
"ppPC5: PC inhibitor, prosegment proPC5",processing of proApelin,proApelin processing,inhibited
apelin-13,thrombin-induced platelet aggregation,human platelets [1],inhibited
same,formation of new vessels (neo-vascularisation),mouse aortic ring,induced the formation of new vessels
same,thrombin-induced Ca2+ mobilisation,human platelets [2],inhibited
same,tail bleeding time,wild-type mice,significant increase in bleeding time
same,formation of new vessels (neo-vascularisation),[3],induced the formation of new vessels
"LVQPRGSRNGPGPWQGGSSKFSSQRPRLSHKGPMPF (Synthetic inhibitor of apelin) [Apelin-DM, unprocessed mutant of apelin; cleavage sites of proapelin (18RRKFRR) replaced by 18SSKFSS]",endothelial cell proliferation induced by VEGF,HUVEC [4],inhibits
same,tissue inflammation,[5],inhibited these processes
same,endothelial cell migration induced by VEGF,HUVEC [6],inhibits
same,effect on the apelin inhibitory effect on thrombin-induced aggregation,human platelets [1],abolished the apelin inhibitory effect
same,formation of new vessels (neo-vascularisation),mouse aortic ring,prevents the neo-vascularisation
same,effect on the apelin inhibitory effect on thrombin-induced Ca2+ mobilisation,human platelets [2],abolished the apelin inhibitory effect
same,effect on the apelin-induced increase in bleeding time,wild-type mice,inhibited
same,formation of new vessels (neo-vascularisation),[3],prevents the neo-vascularisation
"Apelin-36: proApelin (Apelin-36), 36 amino acid cleavage product of preproapelin (LVQPRGSRNGPGPWQGGRRKFRRQRPRLSHKGPMPF; listed as Homo sapiens)",thrombin-induced platelet aggregation,human platelets [1],inhibited
same,thrombin-induced Ca2+ mobilisation,human platelets [2],inhibited
same,tail bleeding time,wild-type mice,significant increase in bleeding time
"ppFurin: Furin inhibitor, prosegment proFurin",processing of proApelin,proApelin processing,inhibited
F13A: APJ receptor antagonist apelin-13 (F13A),thrombin-induced platelet aggregation,human platelets [1],no effects
same,effect on the apelin inhibitory effect on thrombin-induced aggregation,human platelets [1],prevents the inhibitory effects of apelin alone; also recorded: abolished the apelin inhibitory effect
same,thrombin-induced Ca2+ mobilisation,human platelets [2],no effects
same,effect on the apelin inhibitory effect on thrombin-induced Ca2+ mobilisation,human platelets [2],prevents the inhibitory effects of apelin alone; also recorded: abolished the apelin inhibitory effect
same,tail bleeding time,wild-type mice,no effects
same,effect on the apelin-induced increase in bleeding time,wild-type mice,prevents the inhibitory effects of apelin alone; also recorded: inhibited
"alpha1-PDX: Furin inhibitor serpin alpha1-antitrypsin, furin-motif variant of α1-antitrypsin",processing of proApelin,proApelin processing,inhibited
apelin,tissue inflammation,[5],increased tissue inflammation
